Tests used:
Experiment in all cases: relative viability (nuclei count vs DMSO), 5 days (fraction); higher = more cells survive
[1] = compound: C1CSC2=C(C(=O)N1)SC3=C2C=C(C=C3)O [kb NB 142-70]
Procedure, shortened: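 Lung cancer cell lines in 1536-well plates were exposed by pinning to five library-drug doses (not always all listed) √10 apart, following an overnight hold at 37 °C. MetaXpress counted Hoechst-stained nuclei from 4× images taken after 5 days without medium change. Viability is the median ratio of treated-well to vehicle-well nuclei across plates. Plates required control CV below 25% and at least one doubling.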

[2] = compound: C1CSC2=C(C(=O)N1)SC3=C2C=C(C=C3)O [kb NB 142-70] + Cc1nc(NC(=O)N2CCC[C@H]2C(N)=O)sc1-c1ccnc(C(C)(C)C(F)(F)F)c1 [Alpelisib] (partner 2 µM)
Procedure, shortened: (§1)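 Relative viability divides the nuclei count in treated wells by that in vehicle wells. Lung cancer cell lines were seeded in 1536-well plates, dosed by pin tool the next day, and fixed and stained after 5 days in one step with final 0.05% Triton X-100, 1% formaldehyde and 1 ug/ml Hoechst. Dosing was a single drug or a fixed anchor-drug dose plus five library-drug doses (not always all listed) in √10 steps, and values are medians of duplicate plates imaged at 4×.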

[3] = compound: NCC(=O)Nc1ccc(-n2nc(C(F)(F)F)cc2-c2ccc3c(ccc4ccccc43)c2)cc1 + COc1cc2c(Oc3ccc(NC(=O)C4(C(=O)Nc5ccc(F)cc5)CC4)cc3F)ccnc2cc1OCCCN1CCOCC1 [Foretinib] (partner 0.25 µM)
Procedure, shortened: as §1

[4] = compound: NCC(=O)Nc1ccc(-n2nc(C(F)(F)F)cc2-c2ccc3c(ccc4ccccc43)c2)cc1 + C[C@@H](Oc1cc(-c2cnn(C3CCNCC3)c2)cnc1N)c1c(Cl)ccc(F)c1Cl [Crizotinib] (partner 1 µM)
Procedure, shortened: as §1

Cell Line	relative viability ([1]; 0.1 µM)	relative viability ([1]; 1 µM)	relative viability ([1]; 3.162 µM)	relative viability ([2]; first compound 0.1 µM)	relative viability ([2]; first compound 1 µM)	relative viability ([2]; first compound 3.162 µM)	relative viability ([3]; first compound 0.02 µM)	relative viability ([3]; first compound 0.06325 µM)	relative viability ([3]; first compound 0.2 µM)	relative viability ([3]; first compound 0.6325 µM)	relative viability ([3]; first compound 2 µM)	relative viability ([4]; first compound 0.02 µM)	relative viability ([4]; first compound 0.06325 µM)	relative viability ([4]; first compound 0.2 µM)	relative viability ([4]; first compound 0.6325 µM)	relative viability ([4]; first compound 2 µM)
NCI-H2347	1.05	1.02	0.949	0.963	1.09	1.01	1.36	0.838	1.02	1.03	0.833	0.755	0.768	0.822	0.813	0.688
NCI-H2405	0.985	0.995	0.7	0.743	0.802	0.723	1.12	1.07	1.13	1.03	1.11	0.916	0.927	0.914	0.847	0.881
NCI-H3122	0.962	0.982	0.969	0.828	0.7	0.442	0.973	0.906	1.01	0.962	0.888	0.275	0.287	0.266	0.289	0.279
PC-3 [JPC-3]	1	1.07	1.05	1.06	1.04	0.968	1.08	1.1	1.12	1.08	1.16	1.01	1.03	0.996	0.959	0.99
PC-14	0.958	0.973	0.954	0.902	0.969	0.99	1.03	1.09	0.942	0.98	0.944	1.1	0.905	1.04	0.976	0.937
RERF-LC-KJ	0.988	1.04	0.921	0.778	0.827	0.706	0.963	1.06	0.927	0.466	0.851	0.867	0.845	0.847	0.791	0.809
SK-LU-1	0.994	0.982	0.664	0.961	0.873	0.307	0.845	0.843	0.97	0.785	0.85	0.854	0.949	1.11	0.831	1.03
SK-MES-1	1.01	1.13	0.734	0.932	0.922	0.833	0.955	0.896	0.995	0.959	1.06	1.04	0.994	1.04	0.979	1.03
SW 1573	1.02	0.84	0.535	0.86	0.549	0.529	0.986	0.867	0.87	0.895	0.905	0.756	0.756	0.837	0.848	0.911

— the supplement of paper PMC10307832
